Our source for the Ki values is patent publication US20090075887A1, “Treatment with Kallikrein Inhibitors” (GENZYME CORPORATION, priority 2007, published 2009).

The assay deals with plasma kallikrein (Homo sapiens, UniProt P03952). The assay is described as follows: Inhibition constant for plasma kallikrein. The settings on record: plasma kallikrein (PK); value used for the dose calculation. It is filed as biochemical.

Bridges are numbered along the chain shown (N, C = ends). Where no end group is shown, it is not given here.

plasma kallikrein, sequence (P03952 20-638): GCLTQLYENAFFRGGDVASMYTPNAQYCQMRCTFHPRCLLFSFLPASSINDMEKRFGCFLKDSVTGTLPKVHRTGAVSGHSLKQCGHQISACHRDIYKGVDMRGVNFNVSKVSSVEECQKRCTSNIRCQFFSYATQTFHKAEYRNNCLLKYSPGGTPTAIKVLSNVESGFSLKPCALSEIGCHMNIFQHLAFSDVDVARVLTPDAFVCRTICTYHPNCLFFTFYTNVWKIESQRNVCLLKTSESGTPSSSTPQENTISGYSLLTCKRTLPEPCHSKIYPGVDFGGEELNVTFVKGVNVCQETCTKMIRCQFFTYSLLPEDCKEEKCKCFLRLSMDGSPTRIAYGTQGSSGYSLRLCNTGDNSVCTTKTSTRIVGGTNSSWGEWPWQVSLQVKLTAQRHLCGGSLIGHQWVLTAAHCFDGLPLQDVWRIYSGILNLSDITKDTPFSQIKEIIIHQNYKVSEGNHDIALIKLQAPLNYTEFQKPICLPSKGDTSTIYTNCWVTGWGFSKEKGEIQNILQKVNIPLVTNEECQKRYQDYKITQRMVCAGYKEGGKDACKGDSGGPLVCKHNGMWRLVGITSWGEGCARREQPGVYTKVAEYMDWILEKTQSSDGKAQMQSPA

For “EAMHSFCAFKADDGPCRAAHPRWFFNIFTRQCEEFIYGGCEGNQNRFESLEECKKMCTRD (disulfide 7-57, 16-40, 32-53) [DX88]”, the Ki is 0.044 nM.

What is called Ki is a measure of affinity in units of concentration, obtained from inhibition or displacement.
